The target of one test is T1, HiBit-BRM fusion protein (Homo sapiens, UniProt P51531).
T1 construct: expressed in transfected cells
As to the kind of experiment: HiBiT-BRM cell-based degradation assay (Nano-Glo HiBiT Lytic Detection, 24 h). The following applies: HeLa cells expressing HiBiT-BRM; for DC50: read-out: BRM HiBit Degradation IC50; for BRM HiBit Degradation Maximum measured: top dose 30 μM. Put shortly:
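Residual HiBiT-BRM in a stable HeLa line was measured by Nano-Glo lytic luminescence after 24 h compound exposure (top final dose 30 μM, 3-fold, 10 points, duplicate). Values are % degradation, scaled between DMSO-treated cells and cells given 2 μM of a known BRM/BRG1 degrader.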
On the technique in general: The HiBiT peptide binds its large partner to form an active luciferase.

The target in test [1] is T2, HiBit-BRG1 fusion protein (Homo sapiens, UniProt P51532).
T2 construct: expressed in transfected cells
T2 sequence (P51532 whole entry, the tested form may be a part): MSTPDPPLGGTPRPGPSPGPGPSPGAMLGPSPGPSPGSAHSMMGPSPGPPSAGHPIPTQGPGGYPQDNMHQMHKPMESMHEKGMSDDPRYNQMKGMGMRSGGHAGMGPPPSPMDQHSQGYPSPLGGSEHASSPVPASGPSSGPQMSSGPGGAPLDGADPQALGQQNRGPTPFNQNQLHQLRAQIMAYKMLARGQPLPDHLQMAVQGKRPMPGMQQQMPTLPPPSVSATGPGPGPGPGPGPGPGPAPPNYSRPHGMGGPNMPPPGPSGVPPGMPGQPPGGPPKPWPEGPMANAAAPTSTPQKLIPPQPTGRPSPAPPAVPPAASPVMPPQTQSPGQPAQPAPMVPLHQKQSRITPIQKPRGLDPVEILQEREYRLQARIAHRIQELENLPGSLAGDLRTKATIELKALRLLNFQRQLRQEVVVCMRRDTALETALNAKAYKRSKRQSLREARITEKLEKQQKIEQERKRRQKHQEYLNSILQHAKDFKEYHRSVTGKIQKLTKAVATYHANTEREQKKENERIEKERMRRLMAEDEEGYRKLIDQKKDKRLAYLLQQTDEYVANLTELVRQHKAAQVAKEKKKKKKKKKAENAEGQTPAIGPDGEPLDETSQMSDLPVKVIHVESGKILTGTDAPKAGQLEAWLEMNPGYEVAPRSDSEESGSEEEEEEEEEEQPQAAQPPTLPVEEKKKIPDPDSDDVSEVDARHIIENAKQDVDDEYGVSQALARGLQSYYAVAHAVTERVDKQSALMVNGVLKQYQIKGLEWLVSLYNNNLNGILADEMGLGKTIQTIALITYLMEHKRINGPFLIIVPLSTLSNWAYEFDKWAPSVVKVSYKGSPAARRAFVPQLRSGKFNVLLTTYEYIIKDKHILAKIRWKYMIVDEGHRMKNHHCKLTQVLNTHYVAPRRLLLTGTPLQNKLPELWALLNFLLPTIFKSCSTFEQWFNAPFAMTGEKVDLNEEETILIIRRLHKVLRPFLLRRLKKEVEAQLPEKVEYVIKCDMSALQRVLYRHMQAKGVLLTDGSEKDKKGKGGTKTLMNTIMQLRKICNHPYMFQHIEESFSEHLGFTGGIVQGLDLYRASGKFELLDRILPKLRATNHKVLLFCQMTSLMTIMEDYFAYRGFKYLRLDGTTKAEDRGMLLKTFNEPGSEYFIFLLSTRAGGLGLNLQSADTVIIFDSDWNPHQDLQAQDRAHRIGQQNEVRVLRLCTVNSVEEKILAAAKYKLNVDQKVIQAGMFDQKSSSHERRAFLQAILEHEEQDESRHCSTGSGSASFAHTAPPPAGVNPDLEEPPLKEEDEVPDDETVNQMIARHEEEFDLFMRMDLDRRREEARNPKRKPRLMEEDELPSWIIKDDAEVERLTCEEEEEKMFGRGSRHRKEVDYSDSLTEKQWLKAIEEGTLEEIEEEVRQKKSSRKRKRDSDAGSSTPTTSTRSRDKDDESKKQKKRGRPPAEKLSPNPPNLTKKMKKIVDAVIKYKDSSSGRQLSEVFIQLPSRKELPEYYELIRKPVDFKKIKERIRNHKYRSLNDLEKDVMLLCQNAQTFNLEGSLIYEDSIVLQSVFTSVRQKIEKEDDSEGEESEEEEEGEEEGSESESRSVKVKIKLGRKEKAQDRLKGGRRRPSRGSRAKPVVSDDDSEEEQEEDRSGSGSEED
As to the kind of experiment: HiBiT-BRG1 cell-based degradation assay (Nano-Glo HiBiT Lytic Detection, 24 h). The following applies: HeLa cells expressing HiBit-BRG1 and LgBit; for DC50: read-out: BRG1 HiBit Degradation IC50; for Dmax: HeLa, top dose 30 μM, read-out: BRG1 HiBit Degradation Maximum measured. Put shortly:
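Degradation is scaled from DMSO-treated cells (0%) to cells given 2 μM of a known BRM/BRG1 degrader (100%). HeLa cells stably carrying HiBiT-BRG1 plus LgBiT (5000/well) were lysed with Nano-Glo HiBiT detection reagent, shaken 10 min at RT, and luminescence read.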

The results in this text go back to patent US12662479B2 (Foghorn Therapeutics Inc., priority 2020, dated 2026).

T1 sequence (P51531 whole entry, the tested form may be a part): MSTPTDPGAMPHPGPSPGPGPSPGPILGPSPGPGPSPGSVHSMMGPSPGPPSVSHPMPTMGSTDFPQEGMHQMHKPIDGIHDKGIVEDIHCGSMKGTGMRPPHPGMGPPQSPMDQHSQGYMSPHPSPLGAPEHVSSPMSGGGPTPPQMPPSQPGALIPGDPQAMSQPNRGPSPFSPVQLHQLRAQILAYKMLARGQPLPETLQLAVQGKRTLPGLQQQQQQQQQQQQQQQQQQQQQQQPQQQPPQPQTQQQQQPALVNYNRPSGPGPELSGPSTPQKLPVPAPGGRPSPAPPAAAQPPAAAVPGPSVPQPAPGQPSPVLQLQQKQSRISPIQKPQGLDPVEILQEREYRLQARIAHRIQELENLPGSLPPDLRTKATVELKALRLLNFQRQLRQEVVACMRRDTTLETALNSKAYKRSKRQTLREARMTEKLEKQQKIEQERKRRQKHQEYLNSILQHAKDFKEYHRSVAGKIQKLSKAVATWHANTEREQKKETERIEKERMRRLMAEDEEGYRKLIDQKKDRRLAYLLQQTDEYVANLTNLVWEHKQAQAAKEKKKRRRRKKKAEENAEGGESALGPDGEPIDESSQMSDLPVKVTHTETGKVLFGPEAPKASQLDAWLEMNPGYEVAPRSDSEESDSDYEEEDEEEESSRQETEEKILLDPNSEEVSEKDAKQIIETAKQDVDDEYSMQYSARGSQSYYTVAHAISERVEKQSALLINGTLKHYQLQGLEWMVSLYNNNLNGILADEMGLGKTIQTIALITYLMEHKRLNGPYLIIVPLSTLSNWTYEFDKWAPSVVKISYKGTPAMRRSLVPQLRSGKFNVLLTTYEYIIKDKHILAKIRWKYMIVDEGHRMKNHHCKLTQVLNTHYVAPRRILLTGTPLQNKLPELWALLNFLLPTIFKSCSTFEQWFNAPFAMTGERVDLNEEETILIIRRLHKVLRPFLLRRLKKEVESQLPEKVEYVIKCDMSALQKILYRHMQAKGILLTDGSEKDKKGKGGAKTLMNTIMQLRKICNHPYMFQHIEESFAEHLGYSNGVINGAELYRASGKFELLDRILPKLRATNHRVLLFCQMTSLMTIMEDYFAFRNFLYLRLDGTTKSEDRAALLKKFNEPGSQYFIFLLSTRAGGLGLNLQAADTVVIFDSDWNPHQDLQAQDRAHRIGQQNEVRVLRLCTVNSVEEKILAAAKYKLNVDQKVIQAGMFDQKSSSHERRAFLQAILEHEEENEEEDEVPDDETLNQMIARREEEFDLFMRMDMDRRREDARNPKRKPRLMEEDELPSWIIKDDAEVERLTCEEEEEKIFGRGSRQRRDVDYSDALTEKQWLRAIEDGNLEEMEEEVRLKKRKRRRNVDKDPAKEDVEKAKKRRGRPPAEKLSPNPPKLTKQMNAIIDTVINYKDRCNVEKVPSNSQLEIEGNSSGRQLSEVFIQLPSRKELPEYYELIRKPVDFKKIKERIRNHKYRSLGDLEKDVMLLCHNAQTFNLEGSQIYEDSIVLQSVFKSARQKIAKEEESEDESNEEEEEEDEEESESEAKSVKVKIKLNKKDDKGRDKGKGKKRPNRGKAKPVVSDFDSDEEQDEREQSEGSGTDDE

With `Cc1ncsc1-c1ccc(CNC(=O)[C@@H]2C[C@@H](O)CN2C(=O)[C@@H](NC(=O)CCCCCCCCC(=O)NCCOc2cc(-c3cccc(-c4csc(NC(=O)CNC(=O)c5ccn(S(C)(=O)=O)c5)n4)c3)ccn2)C(C)(C)C)cc1` [Compound 69, N1-((S)-1-((2S,4R)-4-hydroxy-2-((4-(4-methylthiazol-5-yl)benzyl)carbamoyl)pyrrolidin-1-yl)-3,3-dimethyl-1-oxobutan-2-yl)-N10-(2-((4-(3-(2-(2-(1-(methylsulfonyl)-1H-pyrrole-3-carboxamido)acetamido)thiazol-4-yl)phenyl)pyridin-2-yl)oxy)ethyl)decanediamide], at HiBit-BRM fusion protein, the DC50 is < 0.1 µM and the “BRM HiBit Degradation Maximum measured” value is on record as “A (‘A’ = Maximum degradation >75%)”. Further, in test [1], the DC50 was 0.1 to 1 µM and the Dmax was > 75%.

On to `Cc1ncsc1-c1ccc(CNC(=O)[C@@H]2C[C@@H](O)CN2C(=O)[C@@H](NC(=O)COCCOCC(=O)NCCOc2cc(-c3cccc(-c4csc(NC(=O)CNC(=O)c5ccn(S(C)(=O)=O)c5)n4)c3)ccn2)C(C)(C)C)cc1` [Compound 71, N-(2-((4-(3-(2-(((S)-13-((2S,4R)-4-hydroxy-2-((4-(4-methylthiazol-5-yl)benzyl)carbamoyl)pyrrolidine-1-carbonyl)-14,14-dimethyl-4,11-dioxo-6,9-dioxa-3,12-diazapentadecyl)oxy)pyridin-4-yl)phenyl)thiazol-2-yl)amino)-2-oxoethyl)-1-(methylsulfonyl)-1H-pyrrole-3-carboxamide], for which, on HiBit-BRM fusion protein, the DC50 is > 10 µM and the “BRM HiBit Degradation Maximum measured” value is on record as “C (‘C’ = Maximum degradation <50%)”. In addition, in test [1], the DC50 is > 10 µM and the Dmax is < 50%.

For `Cc1ncsc1-c1ccc(CNC(=O)[C@@H]2C[C@@H](O)CN2C(=O)[C@@H](NC(=O)COCC(=O)N2CCN(c3cc(-c4cccc(-c5csc(NC(=O)CNC(=O)c6ccn(S(C)(=O)=O)c6)n5)c4)ccn3)CC2)C(C)(C)C)cc1` [Compound 72, N-[2-[[4-[3-[2-[4-[2-[2-[[(1S)-1-[(2S,4R)-4-hydroxy-2-[[4-(4-methylthiazol-5-yl)phenyl]methylcarbamoyl]pyrrolidine-1-carbonyl]-2,2-dimethyl-propyl]amino]-2-oxo-ethoxy]acetyl]piperazin-1-yl]-4-pyridyl]phenyl]thiazol-2-yl]amino]-2-oxo-ethyl]-1-methylsulfonyl-pyrrole-3-carboxamide], at HiBit-BRM fusion protein, the DC50 was > 10 µM and the “BRM HiBit Degradation Maximum measured” value was “C (‘C’ = Maximum degradation <50%)”. For the same compound, in test [1], the DC50 was > 10 µM and the Dmax was < 50%.

In the case of `CS(=O)(=O)n1ccc(C(=O)NCC(=O)Nc2nc(-c3cccc(-c4ccnc(N5CCN(C(=O)CCOCCOCCOc6ccc7c(c6)C(=O)N(C6CCC(=O)NC6=O)C7=O)CC5)c4)c3)cs2)c1` (centres unmarked) [Compound 73, N-[2-[[4-[3-[2-[4-[3-[2-[2-[2-(2,6-dioxo-3-piperidyl)-1,3-dioxo-isoindolin-5-yl]oxyethoxy]ethoxy]propanoyl]piperazin-1-yl]-4-pyridyl]phenyl]thiazol-2-yl]amino]-2-oxo-ethyl]-1-methylsulfonyl-pyrrole-3-carboxamide], on HiBit-BRM fusion protein, the DC50 was in the range of 0.1 to 1 µM and the “BRM HiBit Degradation Maximum measured” value is listed as “A (‘A’ = Maximum degradation >75%)”. Further, in test [1], the DC50 lay within 0.1 to 1 µM and the Dmax is > 75%.

For the compound `Cc1ncsc1-c1ccc(CNC(=O)[C@@H]2C[C@@H](O)CN2C(=O)[C@@H](NC(=O)CCC(=O)N2CCN(c3cc(-c4cccc(-c5csc(NC(=O)CNC(=O)c6ccn(S(C)(=O)=O)c6)n5)c4)ccn3)CC2)C(C)(C)C)cc1` [Compound 74, N-[2-[[4-[3-[2-[4-[4-[[(1S)-1-[(2S,4R)-4-hydroxy-2-[[4-(4-methylthiazol-5-yl)phenyl]methylcarbamoyl]pyrrolidine-1-carbonyl]-2,2-dimethyl-propyl]amino]-4-oxo-butanoyl]piperazin-1-yl]-4-pyridyl]phenyl]thiazol-2-yl]amino]-2-oxo-ethyl]-1-methylsulfonyl-pyrrole-3-carboxamide], on HiBit-BRM fusion protein, the DC50 is > 10 µM and the “BRM HiBit Degradation Maximum measured” value is “C (‘C’ = Maximum degradation <50%)”. Moreover, in test [1], the DC50 was > 10 µM and the Dmax was < 50%.

With `Cc1ncsc1-c1ccc(CNC(=O)[C@@H]2C[C@@H](O)CN2C(=O)[C@@H](NC(=O)COCCOCC(=O)N2CCN(c3cc(-c4cccc(-c5csc(NC(=O)CNC(=O)c6ccn(S(C)(=O)=O)c6)n5)c4)ccn3)CC2)C(C)(C)C)cc1` [Compound 75, N-(2-((4-(3-(2-(4-(2-(2-(2-(((S)-1-((2S,4R)-4-hydroxy-2-((4-(4-methylthiazol-5-yl)benzyl)carbamoyl)pyrrolidin-1-yl)-3,3-dimethyl-1-oxobutan-2-yl)amino)-2-oxoethoxy)ethoxy)acetyl)piperazin-1-yl)pyridin-4-yl)phenyl)thiazol-2-yl)amino)-2-oxoethyl)-1-(methylsulfonyl)-1H-pyrrole-3-carboxamide], at HiBit-BRM fusion protein, the DC50 lay within 0.1 to 1 µM; the “BRM HiBit Degradation Maximum measured” value was “B (‘B’ = Maximum degradation ≥50% and ≤75%)”. Also, in test [1], the DC50 lay within 0.1 to 1 µM and the Dmax was > 75%.

On to `Cc1ncsc1-c1ccc(CNC(=O)[C@@H]2C[C@@H](O)CN2C(=O)[C@@H](NC(=O)CCC(=O)NCCOc2cc(-c3cccc(-c4csc(NC(=O)CNC(=O)c5ccn(S(C)(=O)=O)c5)n4)c3)ccn2)C(C)(C)C)cc1` [Compound 76, N′-[(1S)-1-[(2S,4R)-4-hydroxy-2-[[4-(4-methylthiazol-5-yl)phenyl]methylcarbamoyl]pyrrolidine-1-carbonyl]-2,2-dimethyl-propyl]-N-[2-[[4-[3-[2-[[2-[(1-methylsulfonylpyrrole-3-carbonyl)amino]acetyl]amino]thiazol-4-yl]phenyl]-2-pyridyl]oxy]ethyl]butanediamide], for which, on HiBit-BRM fusion protein, the DC50 is > 10 µM and the “BRM HiBit Degradation Maximum measured” value is listed as “C (‘C’ = Maximum degradation <50%)”. In test [1], the DC50 was > 10 µM and the Dmax was < 50%.

Regarding `Cc1ncsc1-c1ccc(CNC(=O)[C@@H]2C[C@@H](O)CN2C(=O)[C@@H](NC(=O)CCCC(=O)NCCOc2cc(-c3cccc(-c4csc(NC(=O)CNC(=O)c5ccn(S(C)(=O)=O)c5)n4)c3)ccn2)C(C)(C)C)cc1` [Compound 77, N1-((S)-1-((2S,4R)-4-hydroxy-2-((4-(4-methylthiazol-5-yl)benzyl)carbamoyl)pyrrolidin-1-yl)-3,3-dimethyl-1-oxobutan-2-yl)-N5-(2-((4-(3-(2-(2-(1-(methylsulfonyl)-1H-pyrrole-3-carboxamido)acetamido)thiazol-4-yl)phenyl)pyridin-2-yl)oxy)ethyl)glutaramide], at HiBit-BRM fusion protein, the DC50 was > 10 µM and the “BRM HiBit Degradation Maximum measured” value is recorded as “C (‘C’ = Maximum degradation <50%)”. In addition, in test [1], the DC50 is > 10 µM and the Dmax was < 50%.

For the compound `Cc1ncsc1-c1ccc(CNC(=O)[C@@H]2C[C@@H](O)CN2C(=O)[C@@H](NC(=O)COCC(=O)NCCOc2cc(-c3cccc(-c4csc(NC(=O)CNC(=O)c5ccn(S(C)(=O)=O)c5)n4)c3)ccn2)C(C)(C)C)cc1` [Compound 78, N-[2-[[4-[3-[2-[2-[[2-[2-[[(1S)-1-[(2S,4R)-4-hydroxy-2-[[4-(4-methylthiazol-5-yl)phenyl]methylcarbamoyl]pyrrolidine-1-carbonyl]-2,2-dimethyl-propyl]amino]-2-oxo-ethoxy]acetyl]amino]ethoxy]-4-pyridyl]phenyl]thiazol-2-yl]amino]-2-oxo-ethyl]-1-methylsulfonyl-pyrrole-3-carboxamide], on HiBit-BRM fusion protein, the DC50 was > 10 µM and the “BRM HiBit Degradation Maximum measured” value is listed as “C (‘C’ = Maximum degradation <50%)”. For the same compound, in test [1], the DC50 was > 10 µM and the Dmax is < 50%.

In the case of `Cc1ncsc1-c1ccc(CNC(=O)[C@@H]2C[C@@H](O)CN2C(=O)[C@@H](NC(=O)CCCC(=O)N2CCN(c3cc(-c4cccc(-c5csc(NC(=O)CNC(=O)c6ccn(S(C)(=O)=O)c6)n5)c4)ccn3)CC2)C(C)(C)C)cc1` [Compound 79, N-(2-((4-(3-(2-(4-(5-(((S)-1-((2S,4R)-4-hydroxy-2-((4-(4-methylthiazol-5-yl)benzyl)carbamoyl)pyrrolidin-1-yl)-3,3-dimethyl-1-oxobutan-2-yl)amino)-5-oxopentanoyl)piperazin-1-yl)pyridin-4-yl)phenyl)thiazol-2-yl)amino)-2-oxoethyl)-1-(methylsulfonyl)-1H-pyrrole-3-carboxamide], at HiBit-BRM fusion protein, the DC50 was > 10 µM and the “BRM HiBit Degradation Maximum measured” value is listed as “C (‘C’ = Maximum degradation <50%)”. In test [1], the DC50 is > 10 µM and the Dmax is < 50%.

In the case of `CS(=O)(=O)n1ccc(C(=O)NCC(=O)Nc2nc(-c3cccc(-c4ccnc(OCCNC(=O)C5CC5CNC(=O)COc5ccc6c(c5)C(=O)N(C5CCC(=O)NC5=O)C6=O)c4)c3)cs2)c1` (centres unmarked) [Compound 80, N-[2-[[4-[3-[2-[2-[[2-[[[2-[2-(2,6-dioxo-3-piperidyl)-1,3-dioxoisoindolin-5-yl]oxyacetyl]amino]methyl]cyclopropanecarbonyl]amino]ethoxy]-4-pyridyl]phenyl]thiazol-2-yl]amino]-2-oxoethyl]-1-methylsulfonyl-pyrrole-3-carboxamide], on HiBit-BRM fusion protein, the DC50 is > 10 µM and the “BRM HiBit Degradation Maximum measured” value was “C (‘C’ = Maximum degradation <50%)”. Also, in test [1], the DC50 was > 10 µM and the Dmax was < 50%.
